Patent US20220142960A1, “Compositions and Methods for Treating Metabolic Disorders” (VeroScience LLC, priority 2013, published 2022)

Legend:
Type in all cases: in vivo, rat
[1] = system: high fat diet-resistant rats (HF-R); assay: Chronic intra-SuMN AMPA treatment of high fat diet-resistant rats
Experimental: (§1) In separate protocols, female Sprague-Dawley high fat diet-resistant rats (HF-R) (16 animals) were fed high fat diets for 4 months or female Sprague-Dawley high fat diet-sensitive rats (HF-S) (16 animals) were fed high fat diets for 3 months. Following initial feeding protocols, AMPA (0.03 mM/0.5 µl) or vehicle was microinjected into SuMN daily for 13 (HF-R animals) or 14 d (HF-S) at the onset of locomotor activity. At the end of AMPA treatment, HF-R animals were sacrificed by decapitation. Trunk blood was collected for glucose and insulin analysis retroperitoneal fat mass were weighed. At the end of AMPA treatment, HF-S animals were subjected to glucose tolerance tests (GTT) and two days after GTT, were sacrificed. Trunk blood was collected for glucose and insulin analysis and retroperitoneal fat mass were weighed. Body weight and food consumption were measured daily throughout both protocols.

[2] = system: dopamine neurons in SuMN; assay: Microdialysis of dopamine metabolites at SCN after intra-SuMN AMPA infusion; details: compared to vehicle
Experimental: Female Sprague-Dawley rats (12) were housed in a room at constant temperature and humidity with a 14/10 light/dark cycle were fed regular diet ad libitum. Each rat was microinjected with retrograde tracer fluorogold (4%, 20 nl) to SCN and allowed to rest for 10 days. The rats were then perfused with 4% paraformaldehyde and the brains were dissected for immunohistochemistry. Dopamine neurons projecting to SCN were identified with double immunochemistry of fluorogold (FG) and tyrosine hydroxylase (TH). To verify functional connection, dopamine metabolites at SCN were measured by microdialysis in freely moving rats following infusion of AMPA (0.3 mM/0.5 µl) to SuMN.

[3] = system: high fat diet-sensitive rats (HF-S); assay: Chronic intra-SuMN AMPA treatment of high fat diet-sensitive rats, GTT
Experimental: as §1

[4] = system: insulin resistant rats on a high fat diet; assay: Dopamine infusion into the SCN of high fat fed SHR rats, GTT; details: male SHR rats on high fat diet
Experimental: Male SHR rats at approximately 12 weeks of age were fed a high fat diet for one month and were then treated with either dopamine or vehicle for a three minute period at the offset of light (14 hour daily photoperiod) via a cannula directed to the SCN daily for 2 weeks while maintained on the high fat diet. At the end of the treatment period, animals were subjected to a glucose tolerance test (GTT) (3 g/kg of glucose) and plasma samples were taken before and at 30, 60, 90, and 120 minutes after glucose treatment. Plasma samples were analyzed for glucose and insulin levels.

[5] = system: insulin resistant high fat fed rats; assay: NMDA agonist directed to the SuMN in high fat fed rats, GTT; details: female Sprague Dawley HFD-sensitive rats, cannula to SuMN daily for 2 weeks at offset of light, relative to vehicle, FIG. 6
Experimental: Treatment of insulin resistant high fat fed rats with an NMDA agonist directed to the SuMN improved insulin resistance and glucose intolerance. Female Sprague Dawley rats were fed a high fat diet for one month and those animals most sensitive to the diet (those gaining the most weight in the group) were then treated with either an NMDA agonist or vehicle for a three minute period at the offset of light (14 hour daily photoperiod) via a cannula directed to the SuMN daily for 2 weeks while maintained on the high fat diet. At the end of the treatment period, animals were subjected to a glucose tolerance test (GTT) (3 g/kg of glucose) and plasma samples were taken before and at 30, 60, 90, and 120 minutes after glucose treatment. Plasma samples were analyzed for glucose and insulin levels.

[6] = AMPA into SuMN daily for 13 d, versus vehicle, p<0.01
[7] = cannula to SCN daily for 2 weeks at offset of light, relative to vehicle, FIG. 7

SMILES: Cc1o[nH]c(=O)c1CC(N)C(=O)O (stereo not shown) [AMPA]
- body weight ([1]; AMPA 0.03 mM/0.5 µl into SuMN daily for 13 d at onset of locomotor activity, versus vehicle, p<0.05): significantly reduced
- retroperitoneal fat ([1]; AMPA into SuMN daily for 13 d, vehicle 13.4 g): 9.02 g
- daily food consumption ([1]; AMPA into SuMN daily for 13 d, vehicle 17.7 g, p<0.05): 13.7 g
- total abdominal fat ([1]; AMPA into SuMN daily for 13 d, vehicle 19.1 g): 12.9 g
- reduction of retroperitoneal fat [1, 6]: 33%
- reduction of total abdominal fat [1, 6]: 32%
- dopamine metabolite HVA at SCN area ([2]; intra-SuMN AMPA infusion 0.3 mM/0.5 µl, freely moving rats, p<0.05, FIG. 1A): significant elevations
- dopamine metabolite DOPAC at SCN area ([2]; intra-SuMN AMPA infusion 0.3 mM/0.5 µl, freely moving rats, p<0.05, FIG. 1B): significant elevations
- serotonin metabolite 5-HIAA at the SCN ([2]; intra-SuMN AMPA infusion, FIG. 1C): did produce a significant elevation
- plasma glucose concentration during the GTT ([3]; AMPA 0.03 mM/0.5 µl into SuMN daily for 14 d, compared to vehicle): significantly reduced
- total area under the glucose GTT curve ([3]; AMPA into SuMN daily for 14 d): decreased
- basal plasma insulin level ([3]; AMPA into SuMN daily for 14 d, decreased from 2.2, P<0.05): 1.15 ng/mL
- basal plasma glucose level ([3]; AMPA into SuMN daily for 14 d, decreased from 114, P<0.05): 106 mg/dL
- Insulin resistant index (HOMA-IR) ([3]; AMPA into SuMN daily for 14 d, reduced from 13.0±1.79, p=0.018): 6.3±1.70

SMILES: CN[C@H](CC(=O)O)C(=O)O [NMDA]
- insulin resistance [4, 7]: significantly improved
- plasma glucose levels during the GTT [4, 7]: significantly reduced
- plasma insulin levels during the GTT [4, 7]: significantly reduced
- insulin resistance [5]: significantly improved
- plasma glucose levels during the GTT [5]: significantly reduced
- plasma insulin levels during the GTT [5]: significantly reduced

SMILES: NCCc1ccc(O)c(O)c1 [dopamine]
- insulin resistance [4, 7]: improved
- glucose intolerance ([4]; infusion directly into the SCN daily for 2 weeks): improved
